Test results: the supplement of paper PMC13380429

How the values were obtained:
Settings in all cases: 72 h
[1] = system: U2OS; experiment: cell viability relative to DMSO; higher = less toxic
[2] = system: Calu-3; experiment: as above
[3] = system: Vero E6; experiment: as above
[4] = system: HepG2; experiment: as above
[5] = system: Caco-2; experiment: as above
[6] = system: U2OS; experiment: relative viability EC50 (midpoint between 100% and the lowest measured viability); higher = less toxic
[7] = system: Calu-3; experiment: as above
[8] = system: Vero E6; experiment: as above
[9] = system: HepG2; experiment: as above
[10] = system: Caco-2; experiment: as above
[11] = system: U2OS; experiment: drug sensitivity score (DSS) for viability; higher = more toxic; extreme values may be limits of the assay
[12] = system: Calu-3; experiment: as above
[13] = system: Vero E6; experiment: as above
[14] = system: HepG2; experiment: as above
[15] = system: Caco-2; experiment: as above

| Compound | cell viability ([1]; 1 nM) | cell viability ([1]; 10 nM) | cell viability ([1]; 100 nM) | cell viability ([1]; 1000 nM) | cell viability ([1]; 10000 nM) | cell viability ([2]; 1 nM) | cell viability ([2]; 10 nM) | cell viability ([2]; 100 nM) | cell viability ([2]; 1000 nM) | cell viability ([2]; 10000 nM) | cell viability ([3]; 1 nM) | cell viability ([3]; 10 nM) | cell viability ([3]; 100 nM) | cell viability ([3]; 1000 nM) | cell viability ([3]; 10000 nM) | cell viability ([4]; 1 nM) | cell viability ([4]; 10 nM) | cell viability ([4]; 100 nM) | cell viability ([4]; 1000 nM) | cell viability ([4]; 10000 nM) | cell viability ([5]; 1 nM) | cell viability ([5]; 10 nM) | cell viability ([5]; 100 nM) | cell viability ([5]; 1000 nM) | cell viability ([5]; 10000 nM) | relative viability EC50 [6] | relative viability EC50 [7] | relative viability EC50 [8] | relative viability EC50 [9] | relative viability EC50 [10] | drug sensitivity score [11] | drug sensitivity score [12] | drug sensitivity score [13] | drug sensitivity score [14] | drug sensitivity score [15] |
| --- | --- | --- | --- | --- | --- | --- | --- | --- | --- | --- | --- | --- | --- | --- | --- | --- | --- | --- | --- | --- | --- | --- | --- | --- | --- | --- | --- | --- | --- | --- | --- | --- | --- | --- | --- |
| CCN(CC)C(=O)/C(C#N)=C/c1cc(O)c(O)c([N+](=O)[O-])c1 [entacapone] | 96.8% | 102% | 98% | 98.9% | 99.7% | 92.3% | 86.9% | 94.7% | 98.5% | 101% | 100% | 99.2% | 93.2% | 96% | 100% | 98.3% | 84.1% | 102% | 92.2% | 100% | 93.7% | 98.4% | 95.5% | 96% | 93.2% | > 10 µM | > 10 µM | > 10 µM | > 10 µM | > 10 µM | 0 | 0 | 0 | 0 | 0 |
| O=C(O[C@@H]1Cc2c(O)cc(O)cc2O[C@@H]1c1cc(O)c(O)c(O)c1)c1cc(O)c(O)c(O)c1 [epigallocatechin-gallate-(-)] | 100% | 98.2% | 103% | 97% | 97.3% | 103% | 90.5% | 103% | 96.8% | 97.1% | 98.5% | 100% | 103% | 98.2% | 95.4% | 101% | 107% | 93.1% | 97.8% | 97.5% | 103% | 99.1% | 97.7% | 99.7% | 101% | > 10 µM | > 10 µM | > 10 µM | > 10 µM | > 10 µM | 0 | 0 | 0 | 0 | 0 |
| O=c1ccc2cc(O[C@@H]3O[C@H](CO)[C@@H](O)[C@H](O)[C@H]3O)c(O)cc2o1 [esculin] | 100% | 99.4% | 96.8% | 103% | 98.2% | 95.4% | 101% | 91% | 96% | 107% | 105% | 98.8% | 102% | 95.4% | 104% | 104% | 97.3% | 97.4% | 101% | 96% | 93% | 105% | 91.7% | 102% | 99.6% | > 10 µM | > 10 µM | > 10 µM | > 10 µM | > 10 µM | 0 | 0 | 0 | 0 | 0 |
| CCc1cccc2c3c([nH]c12)C(CC)(CC(=O)O)OCC3 (stereo not given) [etodolac] | 95.7% | 103% | 96.2% | 104% | 93.4% | 98% | 107% | 98.7% | 91.9% | 106% | 91.7% | 98.8% | 93.7% | 105% | 95.2% | 105% | 107% | 96.3% | 94.4% | 99.1% | 86.2% | 99.4% | 82.7% | 86.9% | 87.9% | > 10 µM | > 10 µM | > 10 µM | > 10 µM | > 10 µM | 0 | 0 | 0 | 0 | 0 |
| O=C(OCCOCCO)c1ccccc1Nc1cccc(C(F)(F)F)c1 [etofenamate] | 102% | 95.2% | 98.7% | 100% | 96.3% | 108% | 95.6% | 95.8% | 82.5% | 96.3% | 100% | 103% | 103% | 89.3% | 81.7% | 96.2% | 105% | 92.4% | 101% | 104% | 98.1% | 91% | 92.4% | 90.8% | 96.1% | > 10 µM | > 10 µM | > 10 µM | > 10 µM | > 10 µM | 0 | 0.1 | 1.5 | 0 | 0 |
| Cc1oc(=O)oc1COC(=O)C1=C([C@H]2CCCO2)S[C@@H]2[C@@H]([C@@H](C)O)C(=O)N12 [faropenem-medoxomil] | 98.8% | 96.3% | 98.3% | 98.2% | 99.9% | 99.3% | 94.7% | 102% | 93% | 98.8% | 94.7% | 94.1% | 97.6% | 92.4% | 97.9% | 103% | 99.2% | 98.1% | 95.1% | 100% | 95.6% | 93.4% | 96.8% | 93.2% | 97.9% | > 10 µM | > 10 µM | > 10 µM | > 10 µM | > 10 µM | 0 | 0 | 0 | 0 | 0 |
| CC(C)(Oc1ccc(C(=O)c2ccc(Cl)cc2)cc1)C(=O)O [fenofibric-acid] | 103% | 100% | 97.5% | 100% | 95.5% | 90.5% | 94.5% | 101% | 102% | 98.9% | 102% | 102% | 101% | 95.4% | 97% | 91.3% | 96.6% | 90.9% | 94.9% | 90.8% | 92.4% | 106% | 91.9% | 96.2% | 105% | > 10 µM | > 10 µM | > 10 µM | > 10 µM | > 10 µM | 0 | 0 | 0 | 0 | 0 |
| Nc1nc(F)nc2c1ncn2[C@@H]1O[C@H](COP(=O)(O)O)[C@@H](O)[C@@H]1O [fludarabine-phosphate] | 103% | 105% | 97.4% | 99.7% | 104% | 97.1% | 86.8% | 98.3% | 92.9% | 89.2% | 104% | 105% | 101% | 101% | 97.6% | 90.9% | 85.3% | 94.7% | 98.5% | 77.7% | 94.5% | 106% | 98.6% | 96.9% | 101% | > 10 µM | > 10 µM | > 10 µM | > 10 µM | > 10 µM | 0 | 0 | 0 | 0 | 0 |
| CC/C(=C(/CC)c1ccc(OP(=O)(O)O)cc1)c1ccc(OP(=O)(O)O)cc1 [fosfestrol] | 93.4% | 105% | 102% | 102% | 105% | 87% | 84.9% | 92.5% | 108% | 117% | 94.2% | 92.8% | 92.4% | 94.8% | 108% | 102% | 97.6% | 105% | 97.1% | 107% | 84.6% | 93.5% | 97.2% | 94.5% | 104% | > 10 µM | > 10 µM | > 10 µM | > 10 µM | > 10 µM | 0 | 0 | 0 | 0 | 0 |
| O=c1c(-c2ccc(O)cc2)coc2cc(O)cc(O)c12 [genistein] | 93.9% | 98.8% | 87.1% | 87% | 95.4% | 96.4% | 91.5% | 98.1% | 103% | 82.9% | 102% | 108% | 108% | 96.1% | 97.2% | 95.2% | 89.9% | 95.9% | 102% | 82.6% | 102% | 96.6% | 105% | 97% | 90.3% | > 10 µM | > 10 µM | > 10 µM | > 10 µM | > 10 µM | 0 | 0.3 | 0 | 0.3 | 0 |
| O=C(O)CNC(=O)c1ccccc1 [hippuric-acid] | 100% | 99.3% | 106% | 95.2% | 95.7% | 99% | 97.6% | 94.3% | 96.6% | 99.9% | 96% | 98.1% | 97.1% | 94.7% | 100% | 100% | 98.3% | 99.4% | 102% | 95.7% | 96.9% | 107% | 89.2% | 90% | 92.8% | > 10 µM | > 10 µM | > 10 µM | > 10 µM | > 10 µM | 0 | 0 | 0 | 0 | 0.4 |
| Cc1nccn1CCC(C(N)=O)(c1ccccc1)c1ccccc1 [imidafenacin] | 99% | 94% | 101% | 96.4% | 96.5% | 106% | 107% | 106% | 97.9% | 102% | 97.9% | 100% | 95.5% | 99.2% | 97.2% | 101% | 97.3% | 97.5% | 95% | 92.5% | 99.4% | 91.8% | 92.8% | 87.3% | 93.4% | > 10 µM | > 10 µM | > 10 µM | > 10 µM | > 10 µM | 0 | 0 | 0 | 0 | 0.1 |
| CC(=O)N(C)c1cccc(-c2ccnc3c(C(=O)c4cccs4)cnn23)c1 [indiplon] | 112% | 99.4% | 101% | 96.5% | 100% | 99.4% | 98.2% | 91.6% | 96.3% | 101% | 105% | 102% | 97.1% | 107% | 91.3% | 100% | 103% | 97.3% | 96.7% | 77.3% | 100% | 92.6% | 93.5% | 103% | 92.1% | > 10 µM | > 10 µM | > 10 µM | > 10 µM | > 10 µM | 0 | 0 | 0 | 1.3 | 0 |
| N=C(N)NCc1cccc(I)c1 [iobenguane] | 97.6% | 99.8% | 99.1% | 95.2% | 95.9% | 110% | 98.9% | 107% | 111% | 98.6% | 100% | 104% | 111% | 102% | 87.7% | 104% | 91.6% | 79.8% | 79.3% | 83% | 114% | 100% | 118% | 85.6% | 81.4% | > 10 µM | > 10 µM | > 10 µM | > 10 µM | > 10 µM | 0 | 0 | 0 | 6.1 | 1.7 |
